Earlier results as cited in article PMC12311865, “In Vitro Evaluation of the Potential Interactions of Zearalenone-14-sulfate and Zearalenone-14-glucuronide with Human Cytochrome P450 Enzymes, Organic Anion Transporting Polypeptides, and ATP-Binding Cassette Multidrug Transporters” (ACS Omega, 2025).
pIC50: −log10 of the molar value.

Biological target: T1, OATP1A2 (Homo sapiens, UniProt P46721)
T1 construct: expressed in transfected cells; host or cells: A431
T1 sequence (P46721 1-670): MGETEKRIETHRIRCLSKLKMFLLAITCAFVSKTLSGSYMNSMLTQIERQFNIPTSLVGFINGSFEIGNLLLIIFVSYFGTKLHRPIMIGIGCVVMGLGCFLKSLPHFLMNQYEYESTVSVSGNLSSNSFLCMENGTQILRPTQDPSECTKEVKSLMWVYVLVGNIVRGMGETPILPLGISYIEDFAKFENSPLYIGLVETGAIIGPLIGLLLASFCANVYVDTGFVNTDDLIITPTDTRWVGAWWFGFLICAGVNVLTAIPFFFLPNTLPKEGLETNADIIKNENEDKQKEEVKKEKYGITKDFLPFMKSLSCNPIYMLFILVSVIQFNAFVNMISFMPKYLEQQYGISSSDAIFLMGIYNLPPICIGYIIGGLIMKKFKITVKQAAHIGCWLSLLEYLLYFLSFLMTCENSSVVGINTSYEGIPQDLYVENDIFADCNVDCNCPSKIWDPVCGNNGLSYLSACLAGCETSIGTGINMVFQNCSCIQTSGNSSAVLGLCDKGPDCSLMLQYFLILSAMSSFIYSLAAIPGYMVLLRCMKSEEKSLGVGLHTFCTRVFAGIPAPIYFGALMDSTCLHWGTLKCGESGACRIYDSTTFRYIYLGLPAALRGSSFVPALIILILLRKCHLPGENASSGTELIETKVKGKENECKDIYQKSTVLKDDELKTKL
Set-up: method as in earlier report
Conditions: same experimental model; ref earlier report; cited from earlier work

SMILES: C[C@H]1CCCC(=O)CCC/C=C/c2cc(O)cc(O)c2C(=O)O1 [ZEN, Zearalenone]
- pIC50: 5.64
